The nature of data set [1]: MTT assay (relative cell survival), H1299. The following applies: human, H1299 non-small cell lung cancer cells (PhTERT-SEAP), Relative MTT viability (%).
Experimental: (§1) Further, cells were subjected to MTT assay to compare the relative toxicity or effect of each compound on cell proliferation and activity.
(§2) The above-described cells are cultured in a 96-well plate, to which was added with 25 μl MTT solution, and cultured in a 37° C. carbon dioxide incubator for 4 hours. Then, 100 μl Lysis buffer is added and incubated in a 37° C. carbon dioxide incubator overnight. An ELISA reader (Bio-Rad Model 450) is used to read optical density (O.D.) at 550 nm.
(§3) After being subjected to different compound treatments for 72 hours, cells were treated with a fixed amount of MTT solution for 28 hours. Then, DMSO was used to dissolve back formazan, an O. D. value was detected at wavelength in the range of 550/670 nm, and calculated accordingly the cell survival rate (as shown in Table 1).
The test system of data set [2] is H1299 cells. Nature of the data set: MTT assay (relative cell survival), H1299. The following applies: PhTERT-SEAP (H1299), 100 μM.
Experimental: as §1, §2, §3
Data set [3] deals with hTERT promoter (PhTERT) expression. Kind of data set: SEAP assay (PhTERT-SEAP reporter, H1299). To be noted: Homo sapiens, NCI-H1299, PhTERT-SEAP (H1299); for activity at 1 µM: read-out: Relative SEAP activity (%); for activity at 10 µM / activity at 100 µM: read-out: Relative SEAP activity (%) (converted). It is filed as cell-based, human. Here is the method: H1299 were grown in RPMI 1640 media supplemented with 10% fetal bovine serum, 100 units/mL penicillin and […] streptomycin in a humidified atmosphere with 5% CO2 at 37° C. Culture media were changed every three days. To establish stable cell lines that the expression of hTERT could be monitored by a reporter system, a about 3.3 kbp DNA fragment ranging from −3338 to +1 bp of the hTERT gene (hTERT promoter, PhTERT) was subcloned upstream to a secreted alkaline phosphatase gene (SEAP) and transfected into H1299 bp electroporation. The stable clones were selected using G418. The stable clones derived from H1299 were cultured using conditions that are similar to their parental cells.
Secreted alkaline phosphatase was used as the reporter system to monitor the transcriptional activity of hTERT. Here, about 10^4 cells each were grown in 96-well plates and incubated at 37° C. for 24 hours and changed with fresh media. Varying amounts of drugs were added and cells were incubated for another 24 hours. Culture media were collected and heated at 65° C. for 10 min to inactivate heat-labile phosphatases. An equal amount of SEAP buffer (2 M diethanolamine, 1 mM MgCl2, and 20 mM L-homoarginine) was added to the media and p-nitrophenyl phosphate was added to a final concentration of 12 mM. Absorptions at 405 nm were taken, and the rate of absorption increase is determined (the increasing rate of absorbance at 405 nm was used to represent the activity of SEAP).

The values below come from patent US8124637B2, “Anthra [1, 2-d]imidazole-6,11-dione derivatives, preparation method and application thereof” (National Defense Medical Center, priority 2010, dated 2012).

By viability is commonly meant a read-out of living cells in per cent, often relative to untreated cells. With `O=C1c2ccccc2C(=O)c2c1ccc1nc(CNCc3cccc(C(F)(F)F)c3)[nH]c21` [CL13, 2-((3-(trifluoromethyl)benzylamino)methyl)-1H-anthra[1,2-d]imidazole-6,11-dione], in data set [1], the viability at 72 h, 1 µM was 114 ± 3.31%; the viability at 72 h, 10 µM is 110%; the viability at 72 h, 100 µM is > 40%. The “Relative MTT viability (%)” value in data set [2] is listed as 32.26 ± 2.68%. In data set [3], the activity at 1 µM was 87.1 ± 2.04%, the activity at 10 µM was 89.5% and the activity at 100 µM was 4.27%.

Take `CC1CCN(Cc2nc3ccc4c(c3[nH]2)C(=O)c2ccccc2C4=O)CC1` [CL17, 2-((4-methylpiperidin-1-yl)methyl)-1H-anthra[1,2-d]imidazole-6,11-dione]: in data set [1], the viability at 72 h, 1 µM was determined as 114 ± 3.31%; the viability at 72 h, 10 µM is 110%; the viability at 72 h, 100 µM was > 40%. Further, the “Relative MTT viability (%)” value in data set [2] is listed as 32.26 ± 2.68%. In data set [3], the activity at 1 µM is 102 ± 4.81%, the activity at 10 µM is 97.3% and the activity at 100 µM is 25.6%.

In the case of `O=C1c2ccccc2C(=O)c2c1ccc1nc(CCCl)[nH]c21` [CL35, 2-(2-chloroethyl)-1H-anthra[1,2-d]imidazole-6,11-dione], in data set [1], the viability at 72 h, 1 µM came to 91.1 ± 5.56%; the viability at 72 h, 10 µM is 85.6%; the viability at 72 h, 100 µM was > 40%. The “Relative MTT viability (%)” value in data set [2] came to 40.27 ± 1.32%. Further, in data set [3], the activity at 1 µM came to 94.7 ± 9.12%, the activity at 10 µM is 82.8% and the activity at 100 µM is 7.62%.

`O=C1c2ccccc2C(=O)c2c1ccc1nc(CCN3CCN(c4ccccn4)CC3)[nH]c21` [CL38, 2-(2-(4-(pyridin-2-yl)piperazin-1-yl)ethyl)-1H-anthra[1,2-d]imidazole-6,11-dione]: in data set [1], the viability at 72 h, 1 µM stood at 98 ± 7.72%; the viability at 72 h, 10 µM is 92.8%; the viability at 72 h, 100 µM is > 40%. Further, the “Relative MTT viability (%)” value in data set [2] is reported as 57.03 ± 10.76%. Besides, in data set [3], the activity at 1 µM was determined as 87.6 ± 8.63%, the activity at 10 µM is 62.9% and the activity at 100 µM was 1.49%.
